Test results reported in US20230248036A1, “FLAVOUR ADDITIVES” (MARS, INCORPORATED, priority 2012, published 2023).

Assays:
feline umami receptor = assay: Ligand binding of the feline umami receptor; settings: natural ligands of the human T1R1/T1R3 receptor
Excerpt: As mentioned above, in addition to in silico modelling of the feline umami receptor, sequence alignments of the human, cat and dog receptors have been performed. […] Therefore, due to these significant differences, it would not be expected by the skilled person that compounds that are known to bind to the human receptor would affect the umami receptor of other animals as described herein.

[1] = test system: T1R1/T1R3 receptor (umami receptor); assay: In vitro screening for binding and activation of the umami receptor; format: biochemical; settings: in vitro assays using a non-human umami receptor (with in silico modelling); screening in the presence of 0.2 mM IMP
Protocol: In vitro screening was carried out in order to establish which first amino acids bind and activate the umami receptor.
In vitro screening was carried out in order to establish which second amino acids bind and activate the umami receptor.

Row | SMILES | Binding to the feline umami receptor (feline umami receptor) | Ability to bind to and activate the umami receptor [1]
1 | N[C@@H](CCC(=O)O)C(=O)O [glutamate] | does not bind | –
2 | NCC(=O)O [glycine] | – | able to bind to and activate
3 | N[C@@H](Cc1c[nH]cn1)C(=O)O [histidine] | – | able to bind to and activate
4 | C[C@@H](O)[C@H](N)C(=O)O [threonine] | – | do not activate
